Test results published in paper PMC8546428, “Convergent olfactory trace amine-associated receptors detect biogenic polyamines with distinct motifs via a conserved binding site” (The Journal of Biological Chemistry, 2021).
Positions count from the first letter of the chain named.

Legend:
sTAAR365 Y7.43S = sTAAR365 Y7.43S (Petromyzon marinus, UniProt A0A678XMK4, Y299S); test: cell-based
mTAAR9 W7.40Y = target: T1, mTAAR9 W7.40Y (Mus musculus, UniProt Q5QD04, W298Y); test: CRE-luciferase reporter assay, mTAAR9 mutant in Hana3A; assay type: cell-based; conditions: read-out: EC50 (mean ± S.D., n = 3)
T1 construct: expressed in transfected cells; host or cells: Hana3A (HEK293-derived)

mTAAR9 Y6.51W = target: T2, mTAAR9 Y6.51W (Mus musculus, UniProt Q5QD04, Y274W); test: as above; assay type: cell-based; conditions: read-out: EC50 (mean ± S.D., n = 3)
T2 construct: expressed in transfected cells; host or cells: Hana3A (HEK293-derived)
T2 sequence (Q5QD04 1-348 Y274W): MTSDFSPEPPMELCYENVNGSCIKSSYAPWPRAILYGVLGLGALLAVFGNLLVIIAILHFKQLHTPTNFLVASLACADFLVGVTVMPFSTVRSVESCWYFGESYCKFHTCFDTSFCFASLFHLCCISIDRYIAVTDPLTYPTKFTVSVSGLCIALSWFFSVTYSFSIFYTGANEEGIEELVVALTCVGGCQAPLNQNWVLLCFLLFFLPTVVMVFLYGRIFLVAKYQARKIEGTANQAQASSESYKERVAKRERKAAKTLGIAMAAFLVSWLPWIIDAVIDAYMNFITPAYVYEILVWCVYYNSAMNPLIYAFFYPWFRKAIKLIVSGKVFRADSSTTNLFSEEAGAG

sTAAR365 Y7.43A = sTAAR365 Y7.43A (Petromyzon marinus, UniProt A0A678XMK4, Y299A); test: cell-based
mTAAR9 W7.40F = target: T3, mTAAR9 W7.40F (Mus musculus, UniProt Q5QD04, W298F); test: CRE-luciferase reporter assay, mTAAR9 mutant in Hana3A; assay type: cell-based; conditions: read-out: EC50 (mean ± S.D., n = 3)
T3 construct: expressed in transfected cells; host or cells: Hana3A (HEK293-derived)
T3 sequence (Q5QD04 1-348 W298F): T2 sequence (Q5QD04 1-348 Y274W) with W274Y, W298F

sTAAR365 T7.42S = sTAAR365 T7.42S (Petromyzon marinus, UniProt A0A678XMK4, T298S); test: cell-based
sTAAR365 T7.42A = target: T4, sTAAR365 T7.42A (Petromyzon marinus, UniProt A0A678XMK4, T298A)
T4 sequence (A0A678XMK4 1-365 T298A): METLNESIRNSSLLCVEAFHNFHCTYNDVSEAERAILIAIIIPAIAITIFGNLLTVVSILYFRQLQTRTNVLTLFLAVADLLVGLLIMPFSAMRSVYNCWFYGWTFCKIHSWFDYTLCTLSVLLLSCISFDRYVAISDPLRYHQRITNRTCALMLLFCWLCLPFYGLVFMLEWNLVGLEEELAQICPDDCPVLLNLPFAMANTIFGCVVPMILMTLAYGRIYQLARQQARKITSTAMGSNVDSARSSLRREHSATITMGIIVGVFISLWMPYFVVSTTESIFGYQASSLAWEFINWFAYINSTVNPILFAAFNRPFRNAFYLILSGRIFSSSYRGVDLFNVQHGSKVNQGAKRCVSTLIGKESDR

human TAAR9 = human TAAR9 (Homo sapiens, UniProt Q96RI9); conditions: human TAAR9, ligand 1 mM, Fig. 1B
Protocol: (§1) We examined the response of TAAR9s from rat, human, hamster, and rabbit to the stimulation of 1 mM amines using a well-established cAMP response element (CRE)-driven luciferase reporter assay based on Golf-mediated cAMP signal transduction ([5], [24]). In addition to the four mTAAR9 ligands, we included putrescine, which is also a polyamine and precursor of spermine/spermidine biosynthesis.
(§2) Mammalian TAAR9 plasmids were transfected into Hana3A cells along with a cAMP-dependent luciferase reporter plasmid (CRE-Luc). Transfected cells were incubated with tested ligands, and luciferase activity was quantified with a […] substrate as a reporter for Golf-mediated TAAR activation. Luciferase activity was indicated by the luminescence value and normalized as a fold-increase over the response to the vehicle stimuli (mean ± S.D., n = 3). […] B, Hana3A cells expressing mouse, rat, human, cat, hamster, and rabbit TAAR9 were incubated with either vehicle or tested ligands (1 mM) and assayed for reporter activity. C, concentration-dependent luciferase activity in Hana3A cells expressing mouse, rat, and cat TAAR9 receptors stimulated with cadaverine, spermidine, and spermine.
(§3) The firefly luciferase and renilla luciferase activity was measured with a BioTek microplate reader following manufacturer’s instructions.

hamster TAAR9 = hamster TAAR9 (Mesocricetus auratus, UniProt A0A1U7R5X1); conditions: hamster TAAR9, ligand 1 mM, Fig. 1B
Protocol: as §1, §2, §3

Cat TAAR9 = conditions: cat TAAR9, ligand 1 mM, Fig. 1B
Protocol: as §1, §2, §3

rabbit TAAR9 = rabbit TAAR9 (Oryctolagus cuniculus, UniProt G1SUU9); conditions: rabbit TAAR9, ligand 1 mM, Fig. 1B
Protocol: as §1, §2, §3

WT mTAAR9 = target: T5, WT mTAAR9 (Mus musculus, UniProt Q5QD04); test: CRE-luciferase reporter assay, wild-type mTAAR9 in Hana3A; assay type: cell-based; conditions: mouse TAAR9, ligand 1 mM, Fig. 1B
T5 construct: Rho-tag (first 20 amino acids of bovine rhodopsin) (N); expressed in transfected cells; host or cells: Hana3A (HEK293-derived)
T5 sequence (Q5QD04 1-348): T2 sequence (Q5QD04 1-348 Y274W) with W274Y
Protocol: as §2, §3

Chain of sTAAR365 T7.42S (A0A678XMK4 whole entry T298S): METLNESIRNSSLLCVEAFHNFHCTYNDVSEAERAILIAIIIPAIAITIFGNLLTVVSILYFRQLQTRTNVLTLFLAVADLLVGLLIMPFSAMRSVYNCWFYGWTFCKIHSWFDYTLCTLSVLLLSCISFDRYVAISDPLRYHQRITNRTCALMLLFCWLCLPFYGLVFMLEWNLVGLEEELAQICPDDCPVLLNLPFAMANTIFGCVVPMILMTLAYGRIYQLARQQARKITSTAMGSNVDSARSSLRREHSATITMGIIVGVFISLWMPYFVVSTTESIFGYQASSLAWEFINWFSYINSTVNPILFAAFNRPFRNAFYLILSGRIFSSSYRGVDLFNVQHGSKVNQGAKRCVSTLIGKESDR
Chain of human TAAR9 (Q96RI9 whole entry): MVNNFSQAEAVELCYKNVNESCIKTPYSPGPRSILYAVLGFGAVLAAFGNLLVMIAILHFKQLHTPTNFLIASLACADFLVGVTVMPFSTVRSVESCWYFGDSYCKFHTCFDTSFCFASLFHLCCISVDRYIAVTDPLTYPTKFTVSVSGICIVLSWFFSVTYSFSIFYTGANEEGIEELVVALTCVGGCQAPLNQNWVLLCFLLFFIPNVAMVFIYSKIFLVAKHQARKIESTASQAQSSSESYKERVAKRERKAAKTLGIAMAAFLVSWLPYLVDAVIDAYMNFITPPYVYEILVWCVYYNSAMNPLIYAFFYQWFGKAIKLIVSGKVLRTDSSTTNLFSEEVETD
T1 sequence (Q5QD04 whole entry W298Y): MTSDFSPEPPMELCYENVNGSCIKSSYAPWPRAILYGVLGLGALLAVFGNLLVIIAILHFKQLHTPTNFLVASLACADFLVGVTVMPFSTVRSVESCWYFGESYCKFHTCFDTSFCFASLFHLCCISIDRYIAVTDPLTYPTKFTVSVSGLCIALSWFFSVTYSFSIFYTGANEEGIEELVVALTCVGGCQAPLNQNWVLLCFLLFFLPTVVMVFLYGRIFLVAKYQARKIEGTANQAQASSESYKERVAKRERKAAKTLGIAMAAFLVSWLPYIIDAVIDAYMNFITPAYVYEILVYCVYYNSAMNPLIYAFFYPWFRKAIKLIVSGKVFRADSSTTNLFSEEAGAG
Chain of hamster TAAR9 (A0A1U7R5X1 1-348): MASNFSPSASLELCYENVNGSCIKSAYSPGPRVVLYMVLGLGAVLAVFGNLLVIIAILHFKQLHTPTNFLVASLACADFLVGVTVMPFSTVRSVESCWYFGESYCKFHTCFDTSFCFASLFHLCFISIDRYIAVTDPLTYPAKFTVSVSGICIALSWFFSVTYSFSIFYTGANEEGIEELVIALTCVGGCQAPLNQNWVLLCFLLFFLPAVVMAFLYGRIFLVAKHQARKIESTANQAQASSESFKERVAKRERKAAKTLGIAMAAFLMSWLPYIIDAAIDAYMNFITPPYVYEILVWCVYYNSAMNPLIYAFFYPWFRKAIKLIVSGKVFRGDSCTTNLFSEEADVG
Chain of sTAAR365 Y7.43S (A0A678XMK4 whole entry Y299S): as the sequence (A0A678XMK4 whole entry T298S) above, with S298T, Y299S counted along it
Chain of sTAAR365 Y7.43A (A0A678XMK4 whole entry Y299A): as the sequence (A0A678XMK4 whole entry T298S) above, with S298T, Y299A counted along it
Chain of rabbit TAAR9 (G1SUU9 1-348): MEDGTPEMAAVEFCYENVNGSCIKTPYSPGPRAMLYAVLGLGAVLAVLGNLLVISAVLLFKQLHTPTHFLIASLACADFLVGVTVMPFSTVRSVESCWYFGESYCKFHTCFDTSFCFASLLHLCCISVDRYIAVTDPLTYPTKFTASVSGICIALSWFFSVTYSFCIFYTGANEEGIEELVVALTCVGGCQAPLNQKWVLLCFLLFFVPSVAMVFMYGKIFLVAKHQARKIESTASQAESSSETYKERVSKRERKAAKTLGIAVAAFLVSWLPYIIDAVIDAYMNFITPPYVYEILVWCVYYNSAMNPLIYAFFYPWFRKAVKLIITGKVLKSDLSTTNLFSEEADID

| SMILES | EC50 (sTAAR365 Y7.43S) [µM] | EC50 (mTAAR9 W7.40Y) [µM] | EC50 (mTAAR9 Y6.51W) [µM] | EC50 (sTAAR365 Y7.43A) [µM] | EC50 (mTAAR9 W7.40F) [µM] | EC50 (sTAAR365 T7.42S) [µM] | increase of EC50 vs wild-type sTAAR365 (sTAAR365 T7.42A) | reporter activity (activation of TAAR9) (human TAAR9) | reporter activity (activation of TAAR9) (hamster TAAR9) | reporter activity (activation of TAAR9) (Cat TAAR9) | reporter activity (activation of TAAR9) (rabbit TAAR9) | reporter activity (activation of TAAR9) (WT mTAAR9) |
| --- | --- | --- | --- | --- | --- | --- | --- | --- | --- | --- | --- | --- |
| NCCCCCN [cadaverine] | 124 ± 9 | 28 ± 8 | > 1000 | 144 ± 11 | 83 ± 35 | 0.126 ± 0.013 | over three |  |  |  |  |  |
| NCCCCN [putrescine] |  |  |  |  |  |  |  | not activated | not activated | not activated | not activated | not activated |
| NCCCNCCCCNCCCN [spermine] |  |  |  |  |  | 64 ± 7 |  |  |  |  |  |  |
